We go through 2 compounds from patent US12357565B2, “Ocular implant containing a tyrosine kinase inhibitor” (Ocular Therapeutix, Inc., priority 2020, dated 2025).

The conditions of data set [1]: Rugo et al. 2005, patients; cited from earlier work.
The conditions of data set [2]: 1.25 mg dose, rabbits (Sinapis et al., 2011); cited from earlier work.
Data set [3] relates to VEGF-induced vascular leakage. The data set can be described thus: VEGF challenge in rabbits: vascular leakage scored by fluorescein angiography. It is filed as in vivo. Conditions: rabbit; 1.25 mg Avastin® alone (group 3).

For `CNC(=O)c1ccccc1Sc1ccc2c(/C=C/c3ccccn3)n[nH]c2c1` [axitinib, N-methyl-2-[3-((E)-2-pyridin-2-yl-vinyl)-1H-indazol-6-ylsulfanyl]-benzamide], the “Clearance half-life (t1/2)” value in data set [1] is recorded as “a few hours”.

Regarding “Avastin®: anti-VEGF therapeutic, 1.25 mg intravitreal”, the Half-life in data set [2] is reported as 6.6 days. Besides, the “Time after which vascular leakage re-occurred (effect lasted until)” value in data set [3] turned out to be 3 months.
